Results on 4 molecules are retold here after US12161657B2, “Combinatorial therapy for use in inducing immunogenic cell death in cancer cells” (priority 2021, dated 2024).

The conditions of series [1]: 2-DG administration, patients; cited from earlier work.
The test system of series [2] is 4T1 (mouse breast cancer). Put plainly: MTS cell viability assay, 4T1 cells. The note with it: for efficacy in killing cancer cells: 4T1, concentration 6× lower than the ED50 concentrations, FIG. 3a; for EC50: Mus musculus, 4T1, MTS, 48 hours, individual drug, read-out: ED50 in 4T1. The class given is cell-based. The protocol: (§1) The 50% effective dose (or ED50) for 2-DG, MTX, and WGN (individually) against the cancer cell lines 4T1 (mouse breast cancer), MCF-7 (human breast cancer), THP-1 (human myelomonocytic cancer), and B16-F10 (mouse melanoma) was determined (Table 1). The cell lines were specifically chosen for their extremely aggressive nature. For example, the cell lines have evolved multiple mechanisms of resistance to cell death and are highly metastatic (e.g., equivalent to a stage 4 cancer model). In this assay, a Determination of the ED50 using the MTS cell viability assay
(§2) Analysis of the effects of MTX-2DG-WGN combination on cell growth was performed with an MTS kit (CellTiter 96® AQueous One Solution Cell Proliferation Assay Kit, Promega, Madison, WI, USA) according to the manufacturer's instruction. 4-T1, MCF-7, B16-F10, and THP-1 cells were seeded into 96-well plates at a density of 10×10^3 cells per well with three replicates. The cells were treated as indicated (MTX, 2DG, and WGN were added initially at concentrations of 100 μM, 50 mM, and 200 μM, respectively, followed by serial two-fold dilutions) and incubated for 48 hours at 5% CO2 at 37° C. After 48 h, 20 μL of CellTiter 96® AQueous One Solution MTS (5 mg/mL) (Promega—Madison, WI, USA) was added to each well and incubated at 5% CO2 at 37° C. for an additional 4 hours. Absorbance readings were taken in an Epoch microplate reader at 490 nm. Computed data was compared to untreated and normalized cells. Cells that were not administered any treatment were considered the control group. Cell viability was calculated by the following formula: Cell viability (%)=(average OD in treated group/average OD in control group)×100%. A dose-activity curve with the concentration spectrum was prepared.
(§3) The EC50 was extrapolated from the dose-response graph. The drug concentration that caused 50% maximum effect with regards to cytotoxicity was determined by plotting triplicate data points over a concentration range and calculating values using regression analysis of GraphPad PRISM v8 program.
(§4) MTX, 2-DG, and WGN were tested alone and in combination. […] The combination of all 3 compounds was also tested, along with a negative control (untreated). The results are shown for 4T1 mouse breast cancer cells (FIG. 3a) and MCF7 human breast cancer cells (FIG. 3b).
(§5) The testing protocol was the same as that described for the ED50 noted above.
(Tetrazolium dyes change colour on reduction, which living cells bring about.)

The conditions of series [3]: 2-DG used alone; cited from earlier work.
Series [4] relates to MCF-7 (human breast cancer). Put plainly: MTS cell viability assay, MCF-7 cells. The series is classed as cell-based. The note with it: for efficacy in killing cancer cells: MCF7, concentration 6× lower than the ED50 concentrations, FIG. 3b; for EC50: Homo sapiens, MCF7, MTS, 48 hours, individual drug, read-out: ED50 in MCF-7. The protocol: as §1, §2, §3, §4, §5
For series [5], the system named is dihydrofolate reductase (DHFR). The settings on record: cited from earlier work.
The test system of another series is B16-F10 (mouse melanoma). Put plainly: MTS cell viability assay, B16-F10 cells. The class given is cell-based. The note with it: 48 hours, individual drug, read-out: ED50 in B16-F10. On the procedure: as §1
(§6) Analysis of the effects of MTX-2DG-WGN combination on cell growth was performed with an MTS kit (CellTiter 96® AQueous One Solution Cell Proliferation Assay Kit, Promega, Madison, WI, USA) according to the manufacturer's instruction. […] Absorbance readings were taken in an Epoch microplate reader at 490 nm. […] Cell viability was calculated by the following formula: Cell viability (%)=(average OD in treated group/average OD in control group)×100%. […]
(§7) The EC50 was extrapolated from the dose-response graph. The drug concentration that caused 50% maximum effect with regards to cytotoxicity was determined by plotting triplicate data points over a concentration range and calculating values using regression analysis of GraphPad PRISM v8 program. […]

The test system of series [6] is THP-1 (human myelomonocytic cancer). Put plainly: MTS cell viability assay, THP-1 cells. The class given is cell-based. The settings on record: 48 hours, individual drug, read-out: ED50 in THP-1. On the procedure:
as §1, §6, §7

The subject of series [7] is MCF-7 human breast cancer cells 3D cancerspheres. Put plainly: 3D cancersphere viability, MCF-7. The series is classed as cell-based. The settings on record: MCF-7 cancerspheres, 48 h treatment; doxorubicin 25 μM, FIGS. 7c, 7d. On the procedure: (§8) A new model for tumor growth in vitro has been established as 3D cultures known as cancerspheres. To evaluate the clinical translatability and predictivity of the novel combinatorial therapy in vivo, 3D cancerspheres suspended in media containing extracellular matrix proteins (ECM) were treated with the combination of MTX, 2-DG, and WGN.
(§9) Mammary tumorspheres were grown using Matrigel® Extracellular Matrix Basement Membrane (Corning, USA). […]
(§10) After 8 days of culture and 48 h treatment, tumorspheres of roughly 50 cells or more were selected for qualitative analysis. […] After 5 min, tumorspheres were analyzed microscopically. […] Dead (non-viable) spheroids were characterized as stained and displaying no luminescence.
(§11) On the 8th day of culture, media from MCF-7 and 4-T1 mammary tumorsphere cultures was changed and cells were then treated with either our novel combinatorial therapy or 25 μM doxorubicin. […] Absorbance readings were taken in an Epoch microplate reader at 490 nm. […] Cell viability was calculated by the following formula: Cell viability (%)=(average OD in treated group/average OD in control group)×100%.

The subject of series [8] is 4T1 mouse breast cancer cells 3D cancerspheres. Put plainly: 3D cancersphere viability, 4T1. The class given is cell-based. The settings on record: 4T1 cancerspheres, 48 h treatment; doxorubicin 25 μM, FIGS. 7a, 7b. On the procedure: as §8, §9, §10, §11

Some results are limits rather than exact numbers.

For `OCC1O[C@H](O)C[C@@H](O)[C@@H]1O` (mixture of isomers) [2-DG, 2-deoxyglucose], the “doses at which adverse effects occur” value in series [1] is “above 63 mg/kg”. For the same molecule, the “efficacy in killing cancer cells” value in series [2] and in series [4] was “no effect whatsoever” throughout. Also, in series [3], the “concentration needed to be effective when used alone” value was over 5 mM.
Regarding `CN(Cc1cnc2nc(N)nc(N)c2n1)c1ccc(C(=O)N[C@@H](CCC(=O)O)C(=O)O)cc1` [MTG, Methotrexate], the “affinity for DHFR relative to folate” value in [5] is reported as “about 1000 fold”. Also, the EC50 in the series with B16-F10 (mouse melanoma) turned out to be 0.019 µM; in [6] it was 1.82 µM; in [2], 0.049 µM; in series [4], 0.049 µM. The “efficacy in killing cancer cells” value in series [2] and in series [4] was “no effect whatsoever” in each case.
As for `COc1c(O)cc(O)c2c(=O)cc(-c3ccccc3)oc12` [WGN, Wogonin], the EC50 turned out to be 76 µM in the series on B16-F10 (mouse melanoma), 83 µM in series [6], 85 µM in [2] and 20.2 µM in series [4]. Besides, the “efficacy in killing cancer cells” value in series [2] and in series [4] was “no effect whatsoever” throughout.
As for `COc1cccc2c1C(=O)c1c(O)c3c(c(O)c1C2=O)C[C@@](O)(C(=O)CO)C[C@@H]3O[C@H]1C[C@H](N)[C@H](O)[C@H](C)O1` [doxorubicin], the “efficacy against 3D cancerspheres” value in [7] and in series [8] was “resistant” each time.
